Results published in patent US7759345B2, “Antitumoral derivatives of ET-743” (priority 2001, dated 2010).
Read-outs that look alike come from different tables or passages of the source.

What was measured:
Assay type in all cases: cell-based
[1] = system: K-562; assay: Inhibition of cells growth by colorimetric assay (SRB), K-562; conditions: SRB, 48 hours exposure; for GI50 / LC50 (50% cell killing): Homo sapiens, K562, 48 h
Experimental: (§1) 2°.—Inhibition of Cells Growth by Colorimetric Assay.
(§2) A colorimetric type of assay, using sulforhodamine B (SRB) reaction has been adapted for a quantitative measurement of cell growth and viability [following the technique described by Philip Skehan, et al. (1990), New colorimetric cytotoxicity assay for anticancer drug screening, J. Natl. Cancer Inst., 82:1107-1112]
(§3) This form of the assay employs 96 well cell culture microplates of 9 mm diameter (Faircloth, 1988; Mosmann, 1983). Most of the cell lines are obtained from American Type Culture Collection (ATCC) derived from different human cancer types.
(§4) Cells are maintained in RPMI 1640 10% FBS, supplemented with 0.1 g/l penicillin and 0.1 g/l streptomycin sulfate and then incubated at 37° C., 5% CO2 and 98% humidity. For the experiments, cells were harvested from subconfluent cultures using trypsin and resuspended in fresh medium before plating.
(§5) Cells are seeded in 96 well microtiter plates, at 5×10^3 cells per well in aliquots of 195 μl medium, and they are allowed to attach to the plate surface by growing in drug free medium for 18 hours. Afterward, samples are added in aliquots of 5 μl in a ranging from 10 to 10^−8 μg/ml, dissolved in DMSO/EtOH/PBS (0.5:0.5:99). After 48 hours exposure, the antitumor effect are measured by the SRB methodology: cells are fixed by adding 50 μl of cold 50% (wt/vol) trichloroacetic acid (TCA) and incubating for 60 minutes at 4° C. Plates are washed with deionized water and dried. One hundred μl of SRB solution (0.4% wt/vol in 1% acetic acid) is added to each microtiter well and incubated for 10 minutes at room temperature. Unbound SRB is removed by washing with 1% acetic acid. Plates are air dried and bound stain is solubilized with Tris buffer. Optical densities are read on a automated spectrophotometric plate reader at a single wavelength of 490 nm.
(§6) The values for mean+/−SD of data from triplicate wells are calculated. Some parameters for cellular responses can be calculated: GI=growth inhibition, TGI=total growth inhibition (cytostatic effect) and LC=cell killing (cytotoxic effect).
(§7) Obtained results may predict the usefulness of a certain drug as a potential cancer treatment. For this technique, compounds which show GI50 values smaller than 10 μg/ml are selected to continue with further studies. GI50's data allow to predict that not only could a drug be cystostatic, but also it could have a potential in terms of tumor reduction.

[2] = system: A-549; assay: Inhibition of cells growth by colorimetric assay (SRB), A-549; conditions: SRB, 48 hours exposure; for GI50 / LC50 (concentration for 50% cell killing): Homo sapiens, A549, 48 h
Procedure, shortened: (§8)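 SRB read-out at 490 nm after 48 h drug exposure (10 to 10^−8 μg/ml) of cells plated at 5×10^3/well and attached 18 h in drug-free RPMI 1640/10% FBS. Triplicate means give GI, TGI (cytostatic) and LC (cytotoxic).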

[3] = system: SK-MEL-28; assay: Inhibition of cells growth by colorimetric assay (SRB), SK-MEL-28; conditions: SRB, 48 hours exposure; for GI50 / CC50: Homo sapiens, SK-MEL-28, 48 h
Experimental: as §1, §2, §3, §4, §5, §6, §7

[4] = system: HT-29; assay: Inhibition of cells growth by colorimetric assay (SRB), HT-29; conditions: SRB, 48 hours exposure; for GI50 / LC50 (concentration for 50% cell killing): Homo sapiens, HT-29, 48 h
Procedure, shortened: as §8

[5] = system: LoVo; assay: Inhibition of cells growth by colorimetric assay (SRB), LoVo; conditions: SRB, 48 hours exposure; for GI50 / LC50 (concentration for 50% cell killing): Homo sapiens, LoVo, 48 h
Experimental: as §1, §2, §3, §4, §5, §6, §7

[6] = system: LoVo-Dox; assay: Inhibition of cells growth by colorimetric assay (SRB), LoVo-Dox; conditions: SRB, 48 hours exposure; for GI50 / CC50: Homo sapiens, 48 h
Experimental: as §1, §2, §3, §4, §5, §6, §7

[7] = system: DU-145; assay: Inhibition of cells growth by colorimetric assay (SRB), DU-145; conditions: SRB, 48 hours exposure; for GI50 / CC50: Homo sapiens, DU-145, 48 h
Experimental: as §1, §2, §3, §4, §5, §6, §7

[8] = system: SK-BR-3; assay: Inhibition of cells growth by colorimetric assay (SRB), SK-BR-3; conditions: SRB, 48 hours exposure
Experimental: as §1, §2, §3, §4, §5, §6, §7

[9] = system: IGROV-1; assay: Inhibition of cells growth by colorimetric assay (SRB), IGROV-1; conditions: SRB, 48 hours exposure; for GI50 / CC50: Homo sapiens, IGROV-1, 48 h
Experimental: as §1, §2, §3, §4, §5, §6, §7

[10] = system: IGROV-ET; assay: Inhibition of cells growth by colorimetric assay (SRB), IGROV-ET; conditions: SRB, 48 hours exposure; for GI50 / CC50: Homo sapiens, 48 h
Experimental: as §1, §2, §3, §4, §5, §6, §7

[11] = system: SK-OV-3; assay: Inhibition of cells growth by colorimetric assay (SRB), SK-OV-3; conditions: SRB, 48 hours exposure; for GI50 / LC50: Homo sapiens, SK-OV-3, 48 h
Experimental: as §1, §2, §3, §4, §5, §6, §7

[12] = system: PANC-1; assay: Inhibition of cells growth by colorimetric assay (SRB), PANC-1; conditions: SRB, 48 hours exposure; for GI50 / LC50 (concentration for 50% net cell kill): Homo sapiens, PANC-1, 48 h
Experimental: as §1, §2, §3, §4, §5, §6, §7

[13] = system: LNCaP; assay: Inhibition of cells growth by colorimetric assay (SRB), LNCaP; conditions: SRB, 48 hours exposure
Experimental: as §1, §2, §3, §4, §5, §6, §7

With `COc1cc2c(cc1O)CCN[C@]21CS[C@@H]2c3c(OC(C)=O)c(C)c4c(c3[C@H](COC1=O)N1C2[C@H]2c3c(cc(C)c(OC)c3OC(C)C)C[C@@H]([C@@H]1C#N)N2C)OCO4` (stereo partly drawn) [Compound 48] the GI50 ([1]; K-562, read-out: GI50 K-562) was 223 nM, the LC50 (50% cell killing) ([1]; read-out: LC50 K-562, K-562) was 1230 nM and the “TGI K-562” value ([1]; K-562) was 5.47E-07. The “TGI A-549” value ([2]; A-549) was 7.50E-07, the GI50 ([2]; A-549, read-out: GI50 A-549) was 272 nM and the LC50 (concentration for 50% cell killing) ([2]; read-out: LC50 A-549, A-549) was 3890 nM. The GI50 ([3]; MEL-28, read-out: GI50 MEL-28) was 1100 nM, the CC50 ([3]; read-out: LC50 MEL-28, MEL-28) was 7060 nM and the “TGI MEL-28” value ([3]; MEL-28) was 2.87E-06. For the same compound, the “TGI HT-29” value ([4]; HT-29) was 1.23E-05, the GI50 ([4]; HT-29, read-out: GI50 HT-29) was 1970 nM and the LC50 (concentration for 50% cell killing) ([4]; read-out: LC50 HT-29, HT-29) was 12300 nM. For the same compound, the GI50 ([5]; LOVO, read-out: GI50 LOVO) was 713 nM, the LC50 (concentration for 50% cell killing) ([5]; read-out: LC50 LOVO, LOVO) was 12300 nM and the “TGI LOVO” value ([5]; LOVO) was 2.95E-06. For the same compound, the GI50 ([6]; LOVO-DOX, read-out: GI50 LOVO-DOX) was 790 nM, the CC50 ([6]; read-out: LC50 LOVO-DOX, LOVO-DOX) was 12300 nM and the “TGI LOVO-DOX” value ([6]; LOVO-DOX) was 4.18E-06. For the same compound, the “TGI DU-145” value ([7]; DU-145) was 3.20E-06, the GI50 ([7]; DU-145, read-out: GI50 DU-145) was 614 nM and the CC50 ([7]; read-out: LC50 DU-145, DU-145) was 12300 nM. The GI50 ([8]; Homo sapiens, SK-BR-3, 48 h, SK-BR3, read-out: GI50 SK-BR3) was 443 nM, the CC50 ([8]; Homo sapiens, SK-BR-3, 48 h, read-out: LC50 SK-BR3, SK-BR3) was 6970 nM and the “TGI SK-BR3” value ([8]; SK-BR3) was 1.54E-06. The GI50 ([9]; IGROV, read-out: GI50 IGROV) was 439 nM, the CC50 ([9]; read-out: LC50 IGROV, IGROV) was 7980 nM and the “TGI IGROV” value ([9]; IGROV) was 1.78E-06. For the same compound, the GI50 ([10]; IGROV-ET, read-out: GI50 IGROV-ET) was 678 nM, the CC50 ([10]; read-out: LC50 IGROV-ET, IGROV-ET) was 12300 nM and the “TGI IGROV-ET” value ([10]; IGROV-ET) was 2.93E-06. For the same compound, the GI50 ([11]; SK-OV3, read-out: GI50 SK-OV3) was 614 nM, the LC50 ([11]; read-out: LC50 SK-OV3, SK-OV3) was 12300 nM and the “TGI SK-OV3” value ([11]; SK-OV3) was 3.40E-06. The GI50 ([12]; PANC-1, read-out: GI50 PANC-1) was 910 nM, the LC50 (concentration for 50% net cell kill) ([12]; read-out: LC50 PANC-1, PANC-1) was 12300 nM and the “TGI PANC-1” value ([12]; PANC-1) was 5.10E-06.

For `COc1cc2c(cc1O)CCN[C@]21CS[C@@H]2c3c(OC(C)=O)c(C)c4c(c3[C@H](COC1=O)N1C2[C@H]2c3c(cc(C)c(OC)c3OC(C)C)C[C@@H]([C@@H]1O)N2C)OCO4` (stereo partly drawn) [Compound 102], the GI50 ([1]; K-562, read-out: K-562 GI50) was 10.2 nM, the LC50 (50% cell killing) ([1]; read-out: K-562 LC50, K-562) was 126 nM and the “K-562 TGI” value ([1]; K-562) was 4.35E-08. The “A-549 TGI” value ([2]; A-549) was 4.24E-07, the GI50 ([2]; A-549, read-out: A-549 GI50) was 152 nM and the LC50 (concentration for 50% cell killing) ([2]; read-out: A-549 LC50, A-549) was 1190 nM. For the same compound, the GI50 ([3]; MEL-28, read-out: MEL-28 GI50) was 37.9 nM, the CC50 ([3]; read-out: MEL-28 LC50, MEL-28) was 128 nM and the “MEL-28 TGI” value ([3]; MEL-28) was 6.89E-08. The “HT-29 TGI” value ([4]; HT-29) was 2.19E-06, the GI50 ([4]; HT-29, read-out: HT-29 GI50) was 87 nM and the LC50 (concentration for 50% cell killing) ([4]; read-out: HT-29 LC50, HT-29) was 12400 nM. The GI50 ([5]; LOVO, read-out: LOVO GI50) was 69.8 nM, the LC50 (concentration for 50% cell killing) ([5]; read-out: LOVO LC50, LOVO) was 12400 nM and the “LOVO TGI” value ([5]; LOVO) was 4.58E-07. The GI50 ([6]; LOVO-DOX, read-out: LOVO-DOX GI50) was 417 nM, the CC50 ([6]; read-out: LOVO-DOX LC50, LOVO-DOX) was 12400 nM and the “LOVO-DOX TGI” value ([6]; LOVO-DOX) was 1.02E-06. The “DU-145 TGI” value ([7]; DU-145) was 7.84E-08, the GI50 ([7]; DU-145, read-out: DU-145 GI50) was 39.8 nM and the CC50 ([7]; read-out: DU-145 LC50, DU-145) was 124 nM. For the same compound, the GI50 ([13]; Homo sapiens, LNCaP, 48 h, read-out: LNCAP GI50, LNCAP) was 17.5 nM, the CC50 ([13]; Homo sapiens, LNCaP, 48 h, read-out: LNCAP LC50, LNCAP) was 95.4 nM and the “LNCAP TGI” value ([13]; LNCAP) was 4.09E-08. The GI50 ([9]; IGROV, read-out: IGROV GI50) was 35.3 nM, the CC50 ([9]; read-out: IGROV LC50, IGROV) was 134 nM and the “IGROV TGI” value ([9]; IGROV) was 7.63E-08. The GI50 ([10]; IGROV-ET, read-out: IGROV-ET GI50) was 101 nM, the CC50 ([10]; read-out: IGROV-ET LC50, IGROV-ET) was 7810 nM and the “IGROV-ET TGI” value ([10]; IGROV-ET) was 1.53E-06. The GI50 ([11]; SK-OV3, read-out: SK-OV3 GI50) was 41.3 nM, the LC50 ([11]; read-out: SK-OV3 LC50, SK-OV3) was 124 nM and the “SK-OV3 TGI” value ([11]; SK-OV3) was 1.10E-07. The GI50 ([12]; PANC-1, read-out: PANC-1 GI50) was 55.4 nM, the LC50 (concentration for 50% net cell kill) ([12]; read-out: PANC-1 LC50, PANC-1) was 12400 nM and the “PANC-1 TGI” value ([12]; PANC-1) was 1.39E-07.
